Assay results from patent US20250230193A1, “CYCLIC COMPOUND HAVING SELECTIVE KRAS INHIBITORY EFFECT ON HRAS AND NRAS” (CHUGAI SEIYAKU KABUSHIKI KAISHA, priority 2022, published 2025).
Where a SMILES comes first, the peptide text is derived from it. Bridges are numbered along the chain shown (N, C = ends). [ ]: non-standard residue; d: D form. The star is where a group is joined. hPhe(3,5-F2-4-CF3) = N[C@@H](CCc1cc(F)c(C(F)(F)F)c(F)c1)C(=O)O; hPhe(3-Cl-4-CF3) = N[C@@H](CCc1ccc(C(F)(F)F)c(Cl)c1)C(=O)O; NPrPhe(4-CF3) = CCCN[C@@H](Cc1ccc(C(F)(F)F)cc1)C(=O)O; NMeAbu(4,4,4-F3) = CN[C@@H](CC(F)(F)F)C(=O)O; NMeGly(cPent) = CN[C@H](C(=O)O)C1CCCC1; Hyp = O=C(O)[C@@H]1C[C@@H](O)CN1; NMeD = CN[C@@H](CC(=O)O)C(=O)O; NMeL = CN[C@@H](CC(C)C)C(=O)O; Morpholide = C1CN(*)CCO1; Ac5c = NC1(C(=O)O)CCCC1; Aze = O=C(O)[C@@H]1CCN1; Sar = CNCC(=O)O

Key:
[1] = biological target: GDP-bound HRAS wild-type protein (Homo sapiens, UniProt P01112); assay: Binding to HRAS by surface plasmon resonance (SPR), Single Cycle Kinetics
Sequence of GDP-bound HRAS wild-type protein (P01112 whole entry): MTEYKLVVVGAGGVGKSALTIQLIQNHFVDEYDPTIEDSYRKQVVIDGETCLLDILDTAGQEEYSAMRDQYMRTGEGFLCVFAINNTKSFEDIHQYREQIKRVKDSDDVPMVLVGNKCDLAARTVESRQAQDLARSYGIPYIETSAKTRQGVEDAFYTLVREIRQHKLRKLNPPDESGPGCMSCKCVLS

[2] = biological target: GDP-bound NRAS wild-type protein (Homo sapiens, UniProt P01111); assay: Binding to NRAS by surface plasmon resonance (SPR), Single Cycle Kinetics
Sequence of GDP-bound NRAS wild-type protein (P01111 whole entry): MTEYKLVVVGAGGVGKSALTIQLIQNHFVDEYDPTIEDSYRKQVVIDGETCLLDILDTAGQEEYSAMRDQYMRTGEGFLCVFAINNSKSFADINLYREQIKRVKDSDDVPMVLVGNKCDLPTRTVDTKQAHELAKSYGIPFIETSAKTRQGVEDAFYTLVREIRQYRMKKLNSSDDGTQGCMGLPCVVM

[3] = SPR, GDP-bound wild-type proteins
[4] = KD ratio, GDP-bound HRAS wild-type vs GDP-bound KRAS wild-type, SPR
[5] = KD ratio, GDP-bound NRAS wild-type vs GDP-bound KRAS wild-type, SPR

## CCCN1C(=O)CN(C)C(=O)[C@@H]2CCN2C(=O)[C@H]([C@@H](C)CC)NC(=O)[C@H](CC(C)C)N(C)C(=O)C[C@@H](C(=O)N(C)C)NC(=O)[C@H](C2CCCC2)N(C)C(=O)C2(CCCC2)NC(=O)[C@@H]2C[C@@H](OCC)CN2C(=O)[C@H](CCc2ccc(C(F)(F)F)c(Cl)c2)NC(=O)CN(C)C(=O)[C@@H]1Cc1ccc(C(F)(F)F)cc1 [PP0377] ([NMeL]I[Aze][Sar][NPrPhe(4-CF3)][Sar][hPhe(3-Cl-4-CF3)][Hyp](Et)[Ac5c][NMeGly(cPent)]D-NMe2; lactam N-11)
[1]; SPR
  HRAS/KRAS (ratio of KD for GDP-bound HRAS wild-type to KD for KRAS): C (A compound having a KD ratio of 0.1 or more and less than 3 is denoted as C)
[2]; SPR
  NRAS/KRAS (ratio of KD for GDP-bound NRAS wild-type to KD for KRAS): B (a compound having 3 or more and less than 10 is denoted as B)

## CCO[C@@H]1C[C@H]2C(=O)N(C)C3(CC(C)(C)C3)C(=O)N(C)[C@@H](C3CCCC3)C(=O)N(C)[C@H](C(=O)N(C)C)CC(=O)N(C)[C@H]3CCC/C=C/c4ccc(cc4)C[C@@H](C(=O)N(C)CC(=O)N[C@@H](CCc4ccc(Cl)c(Cl)c4)C(=O)N2C1)N1CC/C=C\C[C@@H](C1=O)N(C)C(=O)CN(C)C(=O)[C@H]([C@@H](C)CC)NC3=O [PP3059]
[1]; [3]
  HRAS/KRAS (ratio of KD value with respect to GDP-bound HRAS wild-type protein to KD value with respect to KRAS): A (a compound having 10 or more and less than 20 is denoted as A)
[2]; [3]
  NRAS/KRAS (ratio of KD value with respect to GDP-bound NRAS wild-type protein to KD value with respect to KRAS): A (a compound having 10 or more and less than 20 is denoted as A)

## CCCN1C(=O)[C@@H]2CCN2C(=O)CN(C)C(=O)[C@H]([C@@H](C)CC)NC(=O)[C@H](CC(C)C)N(C)C(=O)C[C@@H](C(=O)N2CCOCC2)N(C)C(=O)[C@H](CC(F)(F)F)N(C)C(=O)C2(CCCC2)NC(=O)[C@@H]2CCCN2C(=O)[C@H](CCc2cc(F)c(C(F)(F)F)c(F)c2)NC(=O)CN(C)C(=O)[C@@H]1Cc1ccc(C(F)(F)F)cc1 [PP0803] ([NMeL]I[Sar][Aze][NPrPhe(4-CF3)][Sar][hPhe(3,5-F2-4-CF3)]P[Ac5c][NMeAbu(4,4,4-F3)][NMeD]-Morpholide; lactam N-11)
[1]; SPR
  HRAS/KRAS (ratio of KD value with respect to GDP-bound HRAS wild-type protein to KD value with respect to KRAS): B (a compound having 3 or more and less than 10 is denoted as B)
[2]; SPR
  NRAS/KRAS (ratio of KD value with respect to GDP-bound NRAS wild-type protein to KD value with respect to KRAS): C (A compound having a KD ratio of 0.1 or more and less than 3 is denoted as C)

## CCO[C@@H]1C[C@H]2C(=O)NC3(CCC3)C(=O)N(C)[C@@H](C3CCCC3)C(=O)N(C)[C@H](C(=O)N3CCOCC3)CC(=O)N(C)[C@@H](Cc3ccc(C)cc3)C(=O)N[C@@H]([C@@H](C)CC)C(=O)N(C)CC(=O)N(C)[C@H]3CCCCCN(C3=O)[C@@H](Cc3ccc(C(F)(F)F)cc3)C(=O)N(C)CC(=O)N[C@@H](CCc3cc(F)c(C(F)(F)F)c(F)c3)C(=O)N2C1 [PP0933]
[1]; [4]
  HRAS/KRAS (ratio of KD value with respect to HRAS to KD value with respect to KRAS): B (a compound having 3 or more and less than 10 is denoted as B)
[2]; [5]
  NRAS/KRAS (ratio of KD value with respect to NRAS to KD value with respect to KRAS): A (a compound having 10 or more and less than 20 is denoted as A)

## CC[C@H](C)[C@@H]1NC(=O)[C@H](COC)N(C)C(=O)C[C@@H](C(=O)N(C)C)N(C)C(=O)[C@H](C2CCCCC2)N(C)C(=O)C2(CC(C)(C)C2)NC(=O)[C@@H]2C[C@@H](OC(C)C)CN2C(=O)[C@H](CCc2ccc(Cl)c(Cl)c2)NC(=O)CN(C)C(=O)[C@H](Cc2ccc(C(F)(F)F)cc2)N2CC/C=C\C[C@@H](C2=O)N(C)C(=O)CN(C)C1=O [PP2662]
[1]; class symbols
  HRAS/KRAS (ratio of KD value with respect to GDP-bound HRAS wild-type protein to KD value with respect to KRAS): A (a compound having 10 or more and less than 20 is denoted as A)
[2]; class symbols
  NRAS/KRAS (ratio of KD value with respect to GDP-bound NRAS wild-type protein to KD value with respect to KRAS): AA (a compound having 20 or more is denoted as AA)

## CCO[C@@H]1C[C@H]2C(=O)NC3(CC(C)(C)C3)C(=O)N(C)[C@@H](C3CCCC3)C(=O)N(C)[C@H](C(=O)N(CC)CC)CC(=O)N(C)[C@@H](CC)C(=O)N[C@@H]([C@@H](C)CC)C(=O)N(C)CC(=O)N(C)[C@H]3C/C=C\CCN(C3=O)[C@@H](Cc3ccc(C)cc3)C(=O)N(C)CC(=O)N[C@@H](CCc3ccc(C(F)(F)F)c(Cl)c3)C(=O)N2C1 [PP1883]
[1]; [4]
  HRAS/KRAS (ratio of KD value for HRAS to KD value for KRAS): A (a compound having 10 or more and less than 20 is denoted as A)
[2]; [5]
  NRAS/KRAS (ratio of KD value for NRAS to KD value for KRAS): A (a compound having 10 or more and less than 20 is denoted as A)

## CCCN1C(=O)[C@@H]2CCN2C(=O)CN(C)C(=O)[C@H]([C@@H](C)CC)NC(=O)[C@H](CC(C)C)N(C)C(=O)C[C@@H](C(=O)N2CCOCC2)NC(=O)[C@H](C2CCCC2)N(C)C(=O)C2(CCCC2)NC(=O)[C@@H]2C[C@@H](OCC)CN2C(=O)[C@H](CCc2ccc(C(F)(F)F)c(Cl)c2)NC(=O)CN(C)C(=O)[C@@H]1Cc1ccc(C(F)(F)F)cc1 [PP0353] ([NMeL]I[Sar][Aze][NPrPhe(4-CF3)][Sar][hPhe(3-Cl-4-CF3)][Hyp](Et)[Ac5c][NMeGly(cPent)]D-Morpholide; lactam N-11)
[1]; SPR
  HRAS/KRAS (ratio of KD for GDP-bound HRAS wild-type to KD for KRAS): B (a compound having 3 or more and less than 10 is denoted as B)
[2]; SPR
  NRAS/KRAS (ratio of KD for GDP-bound NRAS wild-type to KD for KRAS): C (A compound having a KD ratio of 0.1 or more and less than 3 is denoted as C)
